{"source": "patent US20060069132A1", "about": "“Azolecarboxamide herbicides” (priority 2004, published 2006)", "key": {"velvetleaf [1]": {"test_system": "velvetleaf", "assay": "Test A pre-/postemergence herbicide test", "assay_type": "in vivo, Abutilon theophrasti", "in_short": "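Plants are held in greenhouse about ten days after treatment, then compared with untreated controls and scored 0 (no effect) to 100 (complete control). Preemergence dosing is a directed soil spray on sown sandy loam; postemergence dosing is spray to runoff at 2–10 cm height.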"}, "cocklebur": {"test_system": "cocklebur", "assay": "Test C pre-/postemergence herbicide test", "assay_type": "in vivo, Xanthium strumarium", "conditions": "for Cocklebur plant response rating: 500 g ai/ha", "in_short": "(§1)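 Greenhouse-grown plants were evaluated visually 12 to 14 days after treatment, with 100 meaning complete control and 0 no effect. Application was preemergence, or postemergence at 2 to 18 cm.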"}, "eastern black nightshade": {"test_system": "eastern black nightshade", "assay": "Test C pre-/postemergence herbicide test", "assay_type": "in vivo, Solanum ptycanthum", "in_short": "as §1"}, "soybean": {"test_system": "soybean", "assay": "Test C pre-/postemergence herbicide test", "assay_type": "in vivo, Glycine max", "conditions": "for Soybean plant response rating: 500 g ai/ha", "in_short": "as §1"}, "pigweed": {"test_system": "pigweed", "assay": "Test C pre-/postemergence herbicide test", "assay_type": "in vivo, Amaranthus retroflexus", "conditions": "for Pigweed plant response rating: 500 g ai/ha", "in_short": "as §1"}, "corn": {"test_system": "corn", "assay": "Test B pre-/postemergence herbicide test", "assay_type": "in vivo, Zea mays", "conditions": "for Plant response rating, Corn: preemergence; for Corn plant response rating: postemergence, visual rating, scale 0 (no effect) to 100 (complete control)", "in_short": "(§2)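 Visual rating, 0 (no effect) to 100 (complete control), versus untreated controls after 13–15 d in greenhouse. Pre- and postemergence applications (postemergence plants 2–18 cm, 1–4 leaves); flooded paddy arm at 2-leaf stage. Compounds in non-phytotoxic solvent plus surfactant.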"}, "large crabgrass": {"test_system": "large crabgrass", "assay": "Test B pre-/postemergence herbicide test", "assay_type": "in vivo, Digitaria sanguinalis", "conditions": "for Plant response rating, Crabgrass, Large: preemergence; for Crabgrass, Large plant response rating: postemergence, visual rating, scale 0 (no effect) to 100 (complete control)", "in_short": "as §2"}, "velvetleaf [2]": {"test_system": "velvetleaf", "assay": "Test C pre-/postemergence herbicide test", "assay_type": "in vivo, Abutilon theophrasti", "conditions": "for Velvetleaf plant response rating: 500 g ai/ha", "in_short": "as §1"}, "Surinam grass": {"test_system": "Surinam grass", "assay": "Test C pre-/postemergence herbicide test", "assay_type": "in vivo, Urochloa decumbens", "conditions": "for Surinam Grass plant response rating: 500 g ai/ha", "in_short": "as §1"}, "[3]": {"conditions": "125 g ai/ha, scale 0 (no effect) to 100 (complete control), visual, 12 to 14 days, preemergence"}, "[4]": {"conditions": "Postemergence, 250 g ai/ha, scale 0 to 100, 0 no effect, 100 complete control"}, "[5]": {"conditions": "Preemergence, scale 0 to 100, 0 no effect, 100 complete control"}, "[6]": {"conditions": "postemergence, 125 g ai/ha, scale 0 to 100"}, "[7]": {"conditions": "postemergence, 62 g ai/ha, scale 0 to 100"}, "[8]": {"conditions": "500 g ai/ha, visual rating 0-100, 0 no effect, 100 complete control"}, "[9]": {"conditions": "125 g ai/ha, 0 to 100 scale, 0 is no effect, 100 is complete control"}}, "data": [{"smiles": "CCn1nc(C(C)(C)C)cc1C(=O)Nc1cccc(C(=O)NC2CC2)n1", "note": "[Compound 146]", "values": [{"measurement": "Velvetleaf plant response rating", "setting": "velvetleaf [1]; Postemergence, 500 g ai/ha, 0 to 100 scale, 0 no effect, 100 complete control", "result": 20}, {"measurement": "Plant response rating, Velvetleaf", "setting": "velvetleaf [1]; Postemergence, 2000 g ai/ha, 0 to 100 scale, 0 no effect, 100 complete control", "result": 35}, {"measurement": "Velvetleaf plant response rating", "setting": "velvetleaf [1]; Preemergence, 2000 g ai/ha, visual rating, 0 to 100 scale (0 no effect, 100 complete control)", "result": 25}, {"measurement": "Velvetleaf plant response rating", "setting": "velvetleaf [1]; preemergence, 500 g ai/ha, visual injury, 0 to 100 scale (0 no effect, 100 complete control)", "result": 20}, {"measurement": "Plant response rating (0 = no effect, 100 = complete control), Cocklebur", "setting": "cocklebur; 62 g ai/ha, preemergence", "result": 0}, {"measurement": "Plant response rating, Cocklebur", "setting": "cocklebur; [3]", "result": 0}, {"measurement": "Plant response rating, Cocklebur", "setting": "cocklebur; 250 g ai/ha, scale 0 to 100 (0 no effect, 100 complete control), visual, 12 to 14 days, preemergence", "result": 0}, {"measurement": "Cocklebur plant response rating", "setting": "cocklebur; Postemergence, scale 0 to 100", "result": 20}, {"measurement": "Plant response rating, Cocklebur", "setting": "cocklebur; [4]", "result": 10}, {"measurement": "Cocklebur plant response rating", "setting": "cocklebur; [5]", "result": 0}, {"measurement": "Plant response rating, Cocklebur", "setting": "cocklebur; [6]", "result": 5}, {"measurement": "Plant response rating, Cocklebur", "setting": "cocklebur; [7]", "result": 5}, {"measurement": "Plant response rating (0 = no effect, 100 = complete control), Nightshade", "setting": "eastern black nightshade; 62 g ai/ha, preemergence", "result": 50}, {"measurement": "Plant response rating, Nightshade", "setting": "eastern black nightshade; [3]", "result": 60}, {"measurement": "Nightshade plant response rating", "setting": "eastern black nightshade; Preemergence, 500 g ai/ha, scale 0 to 100, 0 no effect, 100 complete control", "result": 100}, {"measurement": "Plant response rating (0 = no effect, 100 = complete control), Soybean", "setting": "soybean; 62 g ai/ha, preemergence", "result": 0}, {"measurement": "Plant response rating, Soybean", "setting": "soybean; [3]", "result": 0}, {"measurement": "Soybean plant response rating", "setting": "soybean; Postemergence, scale 0 to 100", "result": 80}, {"measurement": "Plant response rating, Soybean", "setting": "soybean; [4]", "result": 30}, {"measurement": "Soybean plant response rating", "setting": "soybean; [5]", "result": 0}, {"measurement": "Plant response rating, Soybean", "setting": "soybean; [6]", "result": 20}, {"measurement": "Plant response rating, Soybean", "setting": "soybean; [7]", "result": 20}, {"measurement": "Plant response rating (0 = no effect, 100 = complete control), Pigweed", "setting": "pigweed; 62 g ai/ha, preemergence", "result": 80}, {"measurement": "Plant response rating, Pigweed", "setting": "pigweed; [3]", "result": 95}, {"measurement": "Pigweed plant response rating", "setting": "pigweed; Postemergence, scale 0 to 100", "result": 100}, {"measurement": "Plant response rating, Pigweed", "setting": "pigweed; [4]", "result": 100}, {"measurement": "Pigweed plant response rating", "setting": "pigweed; [5]", "result": 100}, {"measurement": "Plant response rating, Pigweed", "setting": "pigweed; [6]", "result": 90}, {"measurement": "Plant response rating, Pigweed", "setting": "pigweed; [7]", "result": 80}, {"measurement": "Plant response rating, Corn", "setting": "corn; [8]", "result": 0}, {"measurement": "Corn plant response rating", "setting": "corn; 125 g ai/ha", "result": 10}, {"measurement": "Corn plant response rating", "setting": "corn; 500 g ai/ha", "result": 30}, {"measurement": "Plant response rating, Corn", "setting": "corn; [9]", "result": 0}, {"measurement": "Plant response rating, Crabgrass, Large", "setting": "large crabgrass; [8]", "result": 100}, {"measurement": "Crabgrass, Large plant response rating", "setting": "large crabgrass; 125 g ai/ha", "result": 10}, {"measurement": "Crabgrass, Large plant response rating", "setting": "large crabgrass; 500 g ai/ha", "result": 20}, {"measurement": "Plant response rating, Crabgrass, Large", "setting": "large crabgrass; [9]", "result": 10}, {"measurement": "Plant response rating, Velvetleaf", "setting": "velvetleaf [2]; [3]", "result": 40}, {"measurement": "Velvetleaf plant response rating", "setting": "velvetleaf [2]; Postemergence, scale 0 to 100", "result": 40}, {"measurement": "Plant response rating, Velvetleaf", "setting": "velvetleaf [2]; [4]", "result": 40}, {"measurement": "Velvetleaf plant response rating", "setting": "velvetleaf [2]; [5]", "result": 100}, {"measurement": "Plant response rating, Velvetleaf", "setting": "velvetleaf [2]; [6]", "result": 35}, {"measurement": "Plant response rating, Velvetleaf", "setting": "velvetleaf [2]; [7]", "result": 30}, {"measurement": "Plant response rating (0 = no effect, 100 = complete control), Surinam Grass", "setting": "Surinam grass; 62 g ai/ha, preemergence", "result": 0}, {"measurement": "Plant response rating, Surinam Grass", "setting": "Surinam grass; [3]", "result": 0}, {"measurement": "Surinam Grass plant response rating", "setting": "Surinam grass; Postemergence, scale 0 to 100", "result": 20}, {"measurement": "Plant response rating, Surinam Grass", "setting": "Surinam grass; [4]", "result": 0}, {"measurement": "Surinam Grass plant response rating", "setting": "Surinam grass; [5]", "result": 50}, {"measurement": "Plant response rating, Surinam Grass", "setting": "Surinam grass; [6]", "result": 0}, {"measurement": "Plant response rating, Surinam Grass", "setting": "Surinam grass; [7]", "result": 0}]}]}
